Measured values taken from patent publication US20080096894A1, “Anti-Bacterial Compounds” (ASTON UNIVERSITY, priority 2005, published 2008).
Values after ≈ are worked out from the molar mass of the structure shown. Read-outs that look alike come from different tables or passages of the source.

Columns and labels:
[1] = system: human mononuclear leucocytes (MNL, white blood cells); experiment: direct leucocyte toxicity, tryptan blue exclusion, 18 hours; format: cell-based
Protocol: The in vitro assay used human mononuclear leucocytes (MNL, white blood cells) which were incubated with the test compound for 18 hours and cell death determined by tryptan blue exclusion (tryptan blue is a dye, which stains dead cells, whilst living cells extrude it).
The toxicity of 4PYcq and the aldehyde cq and pyridine-4-carboxamidrazone precursors were assessed using the same in vitro assay with human mononuclear leucocytes as that described above. The toxicity of related compounds, 2-hydroxybenzylidene-pyridine-2-carboxamidrazone 4PYbw and benzylidenepyridine-2-carboxamidrazone 4PYaa were also examined.

MRSA = experiment: MIC, agar dilution, multipoint inoculator; format: cell-based, methicillin-resistant Staphylococcus aureus
Protocol: (§1) This activity was measured using a multipoint inoculator method as follows. The MIC for each compound was measured using an agar dilution method (Onda, H., et al., Int. J. Antimicrob. Agents. 18, 263 (2001)) (Mueller Hinton agar) by means of a multipoint inoculator delivering 10^4 colony forming units per spot.
‘Staph’ refers to the reference strain of S. aureus (NCTC 6571). A tick in the MRSA column refers to a positive zone against MRSA strain 96-7474, and the MIC range (in μg/ml) which follows is that found against a panel of ten MRSA strains. Where MIC values are given for MRSA, these are stated as a range of values, as testing was carried out on a panel of clinical isolates.

S. epidemisis = experiment: MIC, agar dilution, multipoint inoculator; format: cell-based, Staphylococcus epidermidis; details: upper value of MIC reading
Protocol: as §1

E. faecium = experiment: MIC, agar dilution, multipoint inoculator; format: cell-based, Enterococcus faecium; details: upper value of MIC reading
Protocol: as §1

S. aureus = experiment: MIC, agar dilution, multipoint inoculator; format: cell-based, Staphylococcus aureus; details: upper value of MIC reading
Protocol: as §1

S. aboni = experiment: MIC, agar dilution, multipoint inoculator; format: cell-based; details: S. aboni NCTC 6017; upper value of MIC reading
Protocol: as §1

E. faecalis = experiment: MIC, agar dilution, multipoint inoculator; format: cell-based; details: upper value of MIC reading
Protocol: as §1

S. haemolyticus = experiment: MIC, agar dilution, multipoint inoculator; format: cell-based; details: S. haemolyticus Isolate 1, upper value of MIC reading
Protocol: as §1

[2] = Staphylococcus aureus, MRSA, 18 h, panel of ten MRSA strains (clinical isolates), read-out: MRSA MIC range
[3] = MRSA Isolate 1, upper value of MIC reading, in µg/mL
[4] = MRSA Isolate 2, upper value of MIC reading, in µg/mL
[5] = MRSA Isolate 3, upper value of MIC reading, in µg/mL
[6] = MRSA Isolate 4, upper value of MIC reading, in µg/mL
[7] = MRSA Isolate 5, upper value of MIC reading, in µg/mL
[8] = MRSA Isolate 6, upper value of MIC reading, in µg/mL
[9] = MRSA Isolate 7, upper value of MIC reading, in µg/mL
[10] = MRSA Isolate 8, upper value of MIC reading, in µg/mL
[11] = MRSA Isolate 9, upper value of MIC reading, in µg/mL
[12] = MRSA Isolate 10, upper value of MIC reading, in µg/mL
[13] = panel of ten MRSA strains (clinical isolates)

N/N=C(\N)c1ccccn1 [Compound 2PY, Pyridine-2-carboxamidrazone]
direct MNL toxicity (in words) [1]: most toxic | % Leucocyte Death ([1]; human, 18 h, 1 mM): 12.1 ± 2.2%

CC(C)(C)c1ccc(/C=N/N=C(\N)c2ccccn2)cc1 [Compound 2PYae]
direct MNL toxicity (in words) [1]: indistinguishable from the background levels | % Leucocyte Death ([1]; human, 18 h, 0.1 mM): 1.1 ± 1.0%

CCC(C)(C)c1ccc(/C=N/N=C(\N)c2ccccn2)cc1 [Compound 2PYaf]
direct MNL toxicity (in words) [1]: indistinguishable from the background levels | % Leucocyte Death ([1]; human, 18 h, 1 mM): 3.1 ± 1.0% | MIC (MRSA; [2]): > 256 µg/mL

N/C(=N\N=C\c1ccccc1OCc1ccccc1)c1ccccn1 [Compound 2PYbe]
direct MNL toxicity (in words) [1]: indistinguishable from the background levels | % Leucocyte Death ([1]; human, 18 h, 0.1 mM): 5.1 ± 4.1%

N/C(=N\N=C\c1ccccc1Sc1ccc(Cl)cc1)c1ccccn1 [Compound 2PYeh]
direct MNL toxicity (in words) [1]: indistinguishable from the background levels | % Leucocyte Death ([1]; human, 18 h, 0.1 mM): 3.7 ± 2.6%

NC(=NN=Cc1cc(O)c(O)cc1O)c1cccnc1 [Compound 3PYcc]
MIC (S. epidemisis; S. epidemisis NCTC 11047): 32 µg/mL (≈ 118 µM) | MIC (E. faecium; E. faecium NCTC 7171): 256 µg/mL (≈ 940 µM) | MIC (MRSA; [3]): 256 | MIC (MRSA; [4]): 256 | MIC (MRSA; [5]): 256 | MIC (MRSA; [6]): 256 | MIC (MRSA; [7]): 256 | MIC (MRSA; [8]): 256 | MIC (MRSA; [9]): 256 | MIC (MRSA; [10]): 256 | MIC (MRSA; [11]): 256 | MIC (MRSA; [12]): 256 | MRSA MIC range (MRSA; [13]): 128 to 256 µg/mL | MIC (S. aureus; S. aureus Cowan 1): 256 µg/mL (≈ 940 µM) | MIC (S. aureus; S. aureus NCTC 6571): 256 µg/mL (≈ 940 µM) | MIC (S. aureus; S. aureus NCTC 10788): 256 µg/mL (≈ 940 µM) | MIC (S. aboni): 256 µg/mL (≈ 940 µM) | MIC (E. faecalis; E. faecalis Isolate 1): 256 µg/mL (≈ 940 µM) | MIC (E. faecalis; E. faecalis Isolate 2): 256 µg/mL (≈ 940 µM) | MIC (E. faecalis; E. faecalis Isolate 4): 256 µg/mL (≈ 940 µM) | MIC (E. faecalis; E. faecalis Isolate 5): 128 µg/mL (≈ 470 µM) | MIC (E. faecalis; E. faecalis NCTC 5957): 256 µg/mL (≈ 940 µM)

NC(=NN=Cc1cc([N+](=O)[O-])ccc1O)c1cccnc1 [Compound 3PYcj]
MIC (S. epidemisis; S. epidemisis Isolate 1): 128 µg/mL (≈ 449 µM) | MIC (S. epidemisis; S. epidemisis NCTC 11047): 64 µg/mL (≈ 224 µM) | MIC (MRSA; [3]): 4 | MIC (MRSA; [4]): 4 | MIC (MRSA; [5]): 4 | MIC (MRSA; [6]): 4 | MIC (MRSA; [7]): 4 | MIC (MRSA; [8]): 8 | MIC (MRSA; [9]): 8 | MIC (MRSA; [10]): 8 | MIC (MRSA; [11]): 8 | MIC (MRSA; [12]): 8 | MRSA MIC range (MRSA; [13]): 2 to 8 µg/mL | MIC (S. aureus; S. aureus Cowan 1): 16 µg/mL (≈ 56.1 µM) | MIC (S. aureus; S. aureus NCTC 6571): 8 µg/mL (≈ 28 µM) | MIC (S. aureus; S. aureus NCTC 10788): 8 µg/mL (≈ 28 µM) | MIC (S. aboni): 256 µg/mL (≈ 897 µM) | MIC (E. faecalis; E. faecalis Isolate 1): 128 µg/mL (≈ 449 µM) | MIC (E. faecalis; E. faecalis Isolate 2): 128 µg/mL (≈ 449 µM) | MIC (E. faecalis; E. faecalis NCTC 5957): 256 µg/mL (≈ 897 µM)

NC(=NN=Cc1cc(Br)cc([N+](=O)[O-])c1O)c1cccnc1 [Compound 3PYcl]
MIC (S. epidemisis; S. epidemisis Isolate 1): 256 µg/mL (≈ 703 µM) | MIC (S. epidemisis; S. epidemisis NCTC 11047): 256 µg/mL (≈ 703 µM) | MIC (E. faecium; E. faecium ACTCC 10541): 128 µg/mL (≈ 351 µM) | MIC (E. faecium; E. faecium NCTC 7171): 256 µg/mL (≈ 703 µM) | MIC (MRSA; [3]): 64 | MIC (MRSA; [4]): 64 | MIC (MRSA; [5]): 64 | MIC (MRSA; [6]): 32 | MIC (MRSA; [7]): 32 | MIC (MRSA; [8]): 64 | MIC (MRSA; [9]): 64 | MIC (MRSA; [10]): 64 | MIC (MRSA; [11]): 64 | MIC (MRSA; [12]): 64 | MRSA MIC range (MRSA; [13]): 16 to 64 µg/mL | MIC (S. aureus; S. aureus Cowan 1): 64 µg/mL (≈ 176 µM) | MIC (S. aureus; S. aureus NCTC 6571): 32 µg/mL (≈ 87.9 µM) | MIC (S. aureus; S. aureus NCTC 10788): 32 µg/mL (≈ 87.9 µM) | MIC (S. aboni): 256 µg/mL (≈ 703 µM) | MIC (S. haemolyticus): 128 µg/mL (≈ 351 µM) | MIC (E. faecalis; E. faecalis EBH1): 256 µg/mL (≈ 703 µM) | MIC (E. faecalis; E. faecalis Isolate 1): 128 µg/mL (≈ 351 µM) | MIC (E. faecalis; E. faecalis Isolate 2): 128 µg/mL (≈ 351 µM) | MIC (E. faecalis; E. faecalis Isolate 4): 256 µg/mL (≈ 703 µM) | MIC (E. faecalis; E. faecalis Isolate 5): 128 µg/mL (≈ 351 µM) | MIC (E. faecalis; E. faecalis NCTC 5957): 128 µg/mL (≈ 351 µM)

N=C(NN=Cc1ccccc1)c1ccccn1 [Compound 4PYaa, benzylidenepyridine-2-carboxamidrazone]
direct MNL toxicity (in words) [1]: only mildly toxic in comparison

CCC(C)(C)c1ccc(/C=N/N=C(\N)c2ccncc2)cc1 [Compound 4PYaf, N^1-[4-(1,1-dimethylpropyl)benzylidene]-pyridine-4-carboxamidrazone]
MIC (S. epidemisis; Staphylococcus epidermidis, 18 h, S. epidemisis Isolate 1, read-out: MIC): 64 µg/mL (≈ 217 µM) | MIC (S. epidemisis; Staphylococcus epidermidis, NCTC11047, 18 h, S. epidemisis NCTC 11047, read-out: MIC): 64 µg/mL (≈ 217 µM) | MIC (E. faecium; Enterococcus faecium, 18 h, E. faecium ACTCC 10541, read-out: MIC): 64 µg/mL (≈ 217 µM) | MIC (E. faecium; Enterococcus faecium, NCTC7171, 18 h, E. faecium NCTC 7171, read-out: MIC): 64 µg/mL (≈ 217 µM) | MIC (MRSA; Staphylococcus aureus, 18 h, MRSA Isolate 1, upper value of MIC reading, read-out: MIC): 64 µg/mL (≈ 217 µM) | MIC (MRSA; Staphylococcus aureus, 18 h, MRSA Isolate 2, upper value of MIC reading, read-out: MIC): 64 µg/mL (≈ 217 µM) | MIC (MRSA; Staphylococcus aureus, 18 h, MRSA Isolate 3, upper value of MIC reading, read-out: MIC): 64 µg/mL (≈ 217 µM) | MIC (MRSA; Staphylococcus aureus, 18 h, MRSA Isolate 4, upper value of MIC reading, read-out: MIC): 64 µg/mL (≈ 217 µM) | MIC (MRSA; Staphylococcus aureus, 18 h, MRSA Isolate 5, upper value of MIC reading, read-out: MIC): 64 µg/mL (≈ 217 µM) | MIC (MRSA; Staphylococcus aureus, 18 h, MRSA Isolate 6, upper value of MIC reading, read-out: MIC): 64 µg/mL (≈ 217 µM) | MIC (MRSA; Staphylococcus aureus, 18 h, MRSA Isolate 7, upper value of MIC reading, read-out: MIC): 64 µg/mL (≈ 217 µM) | MIC (MRSA; Staphylococcus aureus, 18 h, MRSA Isolate 8, upper value of MIC reading, read-out: MIC): 64 µg/mL (≈ 217 µM) | MIC (MRSA; Staphylococcus aureus, 18 h, MRSA Isolate 9, upper value of MIC reading, read-out: MIC): 64 µg/mL (≈ 217 µM) | MIC (MRSA; Staphylococcus aureus, 18 h, MRSA Isolate 10, upper value of MIC reading, read-out: MIC): 64 µg/mL (≈ 217 µM) | MIC (MRSA; [2]): 32 to 64 µg/mL (≈ 109 to 217 µM) | MIC (S. aureus; Staphylococcus aureus, 18 h, S. aureus Cowan 1, read-out: MIC): 64 µg/mL (≈ 217 µM) | MIC (S. aureus; Staphylococcus aureus, NCTC6571, 18 h, S. aureus NCTC 6571, read-out: MIC): 64 µg/mL (≈ 217 µM) | MIC (S. aureus; Staphylococcus aureus, NCTC10788, 18 h, S. aureus NCTC 10788, read-out: MIC): 64 µg/mL (≈ 217 µM) | MIC (S. haemolyticus; Staphylococcus haemolyticus, 18 h, read-out: MIC): 64 µg/mL (≈ 217 µM) | MIC (E. faecalis; Enterococcus faecalis, 18 h, E. faecalis EBH1, read-out: MIC): 64 µg/mL (≈ 217 µM) | MIC (E. faecalis; Enterococcus faecalis, 18 h, E. faecalis Isolate 1, read-out: MIC): 64 µg/mL (≈ 217 µM) | MIC (E. faecalis; Enterococcus faecalis, 18 h, E. faecalis Isolate 2, read-out: MIC): 64 µg/mL (≈ 217 µM) | MIC (E. faecalis; Enterococcus faecalis, 18 h, E. faecalis Isolate 3, read-out: MIC): 64 µg/mL (≈ 217 µM) | MIC (E. faecalis; Enterococcus faecalis, 18 h, E. faecalis Isolate 4, read-out: MIC): 128 µg/mL (≈ 435 µM) | MIC (E. faecalis; Enterococcus faecalis, 18 h, E. faecalis Isolate 5, read-out: MIC): 128 µg/mL (≈ 435 µM) | MIC (E. faecalis; Enterococcus faecalis, NCTC5957, 18 h, E. faecalis NCTC 5957, read-out: MIC): 64 µg/mL (≈ 217 µM)

N=C(NN=Cc1ccccc1O)c1ccccn1 [Compound 4PYbw, 2-hydroxybenzylidene-pyridine-2-carboxamidrazone]
direct MNL toxicity (in words) [1]: only mildly toxic in comparison

CC(C)(C)c1ccc(C=O)cc1 [ae]
direct MNL toxicity (in words) [1]: most toxic | % Leucocyte Death ([1]; human, 18 h, 1 mM): 24.1 ± 9.6%

CCC(C)(C)c1ccc(C=O)cc1 [af]
% Leucocyte Death ([1]; human, 18 h, 1 mM): 5.5 ± 3.0%

O=Cc1cccc2ccccc12 [al]
% Leucocyte Death ([1]; 1.0 mM, 18 hours): 9.2 ± 4.7%
